Results as given in patent publication US10610555B2, “Method for alleviating osteoarthritis by using composite (HL-Joint 100) of achyranthes bidentata, eucommin ulmoides oliver and pomegranate extracts, which has antiinflammatory effect caused by COX2 and PGE2 inhibition, cartilage protective effect caused by MMP-2 and -9 inhibition and cartilage …” (HLSCIENCE CO., LTD., priority 2015, dated 2020).

Tests used:
Type in all cases: in vivo
[1] = test system: rats with surgically-induced osteoarthritis (OA); assay: Osteoarthritis rat model: knee joint thickness; conditions: 200 mg/kg oral (diclofenac 2 mg/kg s.c.); vs OA control group
Protocol: (§1) The osteoarthritis-improving effect of the single or mixed formula of the pomegranate concentrate powder (PCP), the eucommia bark water extract powder (EC) and the achyranthis radix water extract powder (AR) was evaluated. As the representative osteoarthritis (OA) experimental animal model, rats with osteoarthritis (OA) induced by anterior cruciate ligament transaction and partial medial meniscectomy were used [Kim et al., 2012; Kang et al., 2014a; Moon et al., 2014; Choi et al., 2015]. […] In addition, the change in articular cartilage thickness and the number of cyclooxygenase (COX)-2- and tumor necrosis factor (TNF)-α-immunopositive cells in the tibial articular cartilage was monitored [Moore et al. 2005; Kim et al., 2012; Kang et al., 2014a; Choi et al., 2015]. Through this experiment, the anti-inflammatory effect and cartilage-regenerating effect of the pomegranate concentrate powder, the eucommia bark extract and the achyranthis radix extract were evaluated.
(§2) An adequate amount of PCP, EC or AR was dissolved in sterilized distilled water and orally administered at a dosage of 5 mL/kg from 7 days after the osteoarthritis (OA) surgery once a day for 28 days. That is to say, each of the single formulas of PCP, EC and AR and the mixed formulas of PCP and EC:AR (1:1, 1:2, 1:4, 1:6, 1:8, 2:1, 4:1, 6:1 and 8:1) was orally administered at a dosage of 200 mg/kg for 28 days. […]

[2] = test system: rats with surgically-induced osteoarthritis (OA); assay: Osteoarthritis rat model: BrdU-immunopositive cells (cell proliferation); conditions: vs OA control group
Protocol: as §1, §2

[3] = test system: chondrogenesis-related mRNAs (collagen type II, SOX9 and aggrecan); assay: Osteoarthritis rat model: chondrogenesis-related mRNA expression; conditions: diclofenac subcutaneous
Protocol: as §1, §2

[4] = test system: collagen type II mRNA; assay: Osteoarthritis rat model: collagen type II mRNA expression in articular cartilage and joint capsule; conditions: OA rats, 200 mg/kg oral 28 days (diclofenac 2 mg/kg s.c.), mean ± SD
Protocol: as §1
An adequate amount of PCP, EC or AR was dissolved in sterilized distilled water and orally administered at a dosage of 5 mL/kg from 7 days after the osteoarthritis (OA) surgery once a day for 28 days. That is to say, each of the single formulas of PCP, EC and AR and the mixed formulas of PCP and EC:AR (1:1, 1:2, 1:4, 1:6, 1:8, 2:1, 4:1, 6:1 and 8:1) was orally administered at a dosage of 200 mg/kg for 28 days. For the sham surgery (sham) and osteoarthritis (OA) control groups, only sterilized distilled water was orally administered instead of the test substances. 2 mg of diclofenac sodium (Wako Pure Chemical Ind. Ltd., Osaka, Japan) dissolved in 5 mL of sterilized physiological saline was subcutaneously administered into the back skin at a dosage of 5 mL/kg (2 mg/kg) from 7 days after the osteoarthritis (OA) surgery once a day for 28 days. The administration dosage was set to 2,000 mg/60 kg×6=200 mg/kg, corresponding to 6 times the expected dosage for human (2,000 mg) in consideration of the body surface area of the rat. […]

O=C(O)Cc1ccccc1Nc1c(Cl)cccc1Cl [Diclofenac, diclofenac sodium]
knee joint thickness [1]: significant (p<0.01 or p<0.05) decrease in knee joint thickness | number of BrdU-immunopositive cells in the joint capsule [2]: decrease in the number of BrdU-immunopositive cells in the joint capsule | expression of collagen type II, SOX9 and aggrecan mRNAs in the femoral and tibial articular cartilage [3]: increased expression | Collagen type II mRNA expressions, Femur AC [4]: 0.69 ± 0.10^ab | Collagen type II mRNA expressions, Tibia AC [4]: 0.64 ± 0.11^ij | Collagen type II mRNA expressions, SM ([4]; SM not defined, text speaks of joint capsule): 2.74 ± 0.95^ij
